In the NIST ThermoML archive (doi:10.1016/j.jct.2011.01.013):
Numbers after ± are expanded uncertainties.

Test: mn = molality of the nth substance listed, in mol/kg
Details: 298.15 K, 101 kPa, Liquid; for viscosity: Capillary tube (Ostwald / Ubbelohde) method; for speed of sound: Sing-around technique in a fixed-path interferometer; for mass density: Vibrating tube method

CCCCn1cc[n+](C)c1.COS(=O)(=O)[O-] [1-butyl-3-methylimidazolium methyl sulfate] + O
Details | mass density [kg/m3] | speed of sound [m/s] | viscosity [mPa·s]
m1 = 0.00791 | – | – | 0.8954 ± 0.008
m1 = 0.0096 | 997.41 ± 0.4 | 1498 ± 0.94 | –
m1 = 0.01626 | – | – | 0.8999 ± 0.008
m1 = 0.02449 | – | – | 0.9046 ± 0.008
m1 = 0.0289 | 998.13 ± 0.4 | 1500.5 ± 0.95 | –
m1 = 0.0329 | – | – | 0.9095 ± 0.008
m1 = 0.0411 | 998.59 ± 0.4 | 1502 ± 0.95 | –
m1 = 0.04142 | – | – | 0.9133 ± 0.008
m1 = 0.0522 | – | – | 0.9182 ± 0.008
m1 = 0.0584 | 999.23 ± 0.4 | 1504.2 ± 0.95 | –
m1 = 0.06083 | – | – | 0.9236 ± 0.0081
m1 = 0.07206 | – | – | 0.9287 ± 0.0081
m1 = 0.0828 | 1000.11 ± 0.4 | 1507.2 ± 0.96 | –
m1 = 0.08297 | – | – | 0.9354 ± 0.0081
m1 = 0.09627 | – | – | 0.9428 ± 0.0081
m1 = 0.1188 | 1001.49 ± 0.41 | 1512 ± 0.96 | –
m1 = 0.1481 | 1002.58 ± 0.41 | 1515.7 ± 1 | –
m1 = 0.1736 | 1003.51 ± 0.41 | 1519 ± 0.97 | –
m1 = 0.2021 | 1004.58 ± 0.41 | 1522.6 ± 0.98 | –
m1 = 0.2252 | 1005.44 ± 0.41 | 1525.6 ± 0.98 | –

CCCCn1cc[n+](C)c1.F[B-](F)(F)F [1-butyl-3-methylimidazolium tetrafluoroborate] + O
Details | mass density [kg/m3] | speed of sound [m/s] | viscosity [mPa·s]
m1 = 0.00382 | – | – | 0.8922 ± 0.0079
m1 = 0.01067 | – | – | 0.8943 ± 0.008
m1 = 0.0151 | 997.61 ± 0.4 | 1497.7 ± 0.9 | –
m1 = 0.02196 | – | – | 0.8986 ± 0.008
m1 = 0.03489 | – | – | 0.9024 ± 0.008
m1 = 0.0355 | 998.36 ± 0.4 | 1499.1 ± 0.9 | –
m1 = 0.04696 | – | – | 0.9053 ± 0.008
m1 = 0.05635 | – | – | 0.9095 ± 0.008
m1 = 0.0662 | – | – | 0.9133 ± 0.008
m1 = 0.07543 | – | – | 0.9162 ± 0.008
m1 = 0.0764 | 999.85 ± 0.4 | 1502 ± 1 | –
m1 = 0.08767 | – | – | 0.9198 ± 0.0081
m1 = 0.09802 | – | – | 0.9239 ± 0.0081
m1 = 0.1052 | 1000.89 ± 0.41 | 1504 ± 1 | –
m1 = 0.1284 | 1001.72 ± 0.41 | 1505.5 ± 1 | –
m1 = 0.1538 | 1002.64 ± 0.41 | 1507.3 ± 1 | –
m1 = 0.1803 | 1003.58 ± 0.41 | 1509.1 ± 1 | –
m1 = 0.2059 | 1004.49 ± 0.41 | 1510.9 ± 1 | –
m1 = 0.2269 | 1005.22 ± 0.41 | 1512.3 ± 1 | –
m1 = 0.2505 | 1006.06 ± 0.41 | 1513.9 ± 1 | –

CCCCCCCC[n+]1ccn(C)c1.[Cl-] [1-methyl-3-octylimidazolium chloride] + O
Details | mass density [kg/m3] | speed of sound [m/s] | viscosity [mPa·s]
m1 = 0.0074 | – | – | 0.8986 ± 0.008
m1 = 0.0127 | 997.14 ± 0.4 | 1499.2 ± 0.9 | –
m1 = 0.01484 | – | – | 0.9052 ± 0.008
m1 = 0.017 | 997.17 ± 0.4 | 1500 ± 0.9 | –
m1 = 0.02425 | – | – | 0.9131 ± 0.008
m1 = 0.0272 | 997.24 ± 0.4 | 1502 ± 0.9 | –
m1 = 0.039 | 997.32 ± 0.4 | 1504.4 ± 1 | –
m1 = 0.04255 | – | – | 0.9281 ± 0.0081
m1 = 0.0555 | 997.43 ± 0.4 | 1507.5 ± 1 | –
m1 = 0.05607 | – | – | 0.9387 ± 0.0081
m1 = 0.06607 | – | – | 0.946 ± 0.0081
m1 = 0.0693 | 997.52 ± 0.4 | 1510.1 ± 1 | –
m1 = 0.07893 | – | – | 0.956 ± 0.0082
m1 = 0.0892 | 997.65 ± 0.4 | 1513.8 ± 1 | –
m1 = 0.0928 | – | – | 0.968 ± 0.0082
m1 = 0.1002 | 997.72 ± 0.4 | 1515.7 ± 1 | –
m1 = 0.1061 | – | – | 0.9779 ± 0.0083
m1 = 0.1179 | 997.83 ± 0.4 | 1518.5 ± 1 | –
m1 = 0.1353 | 997.94 ± 0.4 | 1521.5 ± 1 | –
m1 = 0.1679 | 998.14 ± 0.4 | 1526.8 ± 1 | –
m1 = 0.183 | 998.23 ± 0.4 | 1529.5 ± 1 | –
m1 = 0.1948 | 998.3 ± 0.4 | 1531.3 ± 1 | –

CCCCn1cc[n+](C)c1.[Cl-] [1-butyl-3-methylimidazolium chloride] + O
Details | mass density [kg/m3] | speed of sound [m/s] | viscosity [mPa·s]
m1 = 0.0123 | 997.21 ± 0.4 | 1498.3 ± 0.9 | –
m1 = 0.01554 | – | – | 0.8981 ± 0.008
m1 = 0.01952 | – | – | 0.9005 ± 0.008
m1 = 0.02 | 997.31 ± 0.4 | 1499.3 ± 0.9 | –
m1 = 0.0252 | – | – | 0.9024 ± 0.008
m1 = 0.0279 | 997.41 ± 0.4 | 1500.3 ± 0.9 | –
m1 = 0.0349 | 997.5 ± 0.4 | 1501.2 ± 0.9 | –
m1 = 0.03495 | – | – | 0.9062 ± 0.008
m1 = 0.0404 | 997.57 ± 0.4 | 1501.9 ± 0.9 | –
m1 = 0.04454 | – | – | 0.9101 ± 0.008
m1 = 0.05402 | – | – | 0.9143 ± 0.008
m1 = 0.0624 | 997.85 ± 0.4 | 1504.8 ± 1 | –
m1 = 0.06772 | – | – | 0.9197 ± 0.008
m1 = 0.08128 | – | – | 0.9258 ± 0.0081
m1 = 0.09508 | – | – | 0.9323 ± 0.0081
m1 = 0.107 | 998.41 ± 0.4 | 1510.6 ± 1 | –
m1 = 0.1132 | – | – | 0.9412 ± 0.0081
m1 = 0.1175 | 998.54 ± 0.4 | 1512 ± 1 | –
m1 = 0.1296 | 998.69 ± 0.4 | 1513.5 ± 1 | –
m1 = 0.1521 | 998.97 ± 0.4 | 1516.5 ± 1 | –
m1 = 0.1677 | 999.16 ± 0.4 | 1518.6 ± 1 | –
m1 = 0.1852 | 999.38 ± 0.4 | 1520.9 ± 1 | –
m1 = 0.2113 | 999.7 ± 0.4 | 1524.3 ± 1 | –
m1 = 0.236 | 1000.01 ± 0.41 | 1527.6 ± 1 | –
m1 = 0.2591 | 1000.29 ± 0.41 | 1530.7 ± 1 | –
m1 = 0.2718 | 1000.45 ± 0.41 | 1532.4 ± 1 | –

CCCCCCCCOS(=O)(=O)[O-].CCCCn1cc[n+](C)c1 [1-butyl-3-methylimidazolium octyl sulfate] + O
Details | mass density [kg/m3] | speed of sound [m/s] | viscosity [mPa·s]
m1 = 0.008 | 997.23 ± 0.4 | 1498.5 ± 0.9 | –
m1 = 0.00921 | – | – | 0.9054 ± 0.008
m1 = 0.0148 | 997.38 ± 0.4 | 1500.1 ± 0.9 | –
m1 = 0.01899 | – | – | 0.9173 ± 0.008
m1 = 0.0215 | 997.53 ± 0.4 | 1501.6 ± 1 | –
m1 = 0.02803 | – | – | 0.9278 ± 0.0081
m1 = 0.0301 | 997.72 ± 0.4 | 1503.6 ± 1 | –
m1 = 0.035 | 997.83 ± 0.4 | 1504.7 ± 1 | –
m1 = 0.03646 | – | – | 0.9388 ± 0.0081
m1 = 0.0423 | 997.99 ± 0.4 | 1506.2 ± 1 | –
m1 = 0.04596 | – | – | 0.9507 ± 0.0082
m1 = 0.0492 | 998.14 ± 0.4 | 1506.9 ± 1 | –
m1 = 0.05551 | – | – | 0.9615 ± 0.0082
m1 = 0.06482 | – | – | 0.9748 ± 0.0082
m1 = 0.0668 | 998.52 ± 0.4 | 1507.5 ± 1 | –
m1 = 0.07522 | – | – | 0.9873 ± 0.0083
m1 = 0.08499 | – | – | 0.9986 ± 0.0083
m1 = 0.0888 | 998.99 ± 0.4 | 1508.1 ± 1 | –
m1 = 0.0981 | – | – | 1.015 ± 0.0084
m1 = 0.1542 | 1000.35 ± 0.41 | 1509.5 ± 1 | –
m1 = 0.2466 | 1002.19 ± 0.41 | 1511.6 ± 1 | –
m1 = 0.3369 | 1003.92 ± 0.41 | 1513.9 ± 1 | –

CCCCCCCC[n+]1ccn(C)c1.F[B-](F)(F)F [1-methyl-3-octylimidazolium tetrafluoroborate] + O
Details | mass density [kg/m3] | speed of sound [m/s] | viscosity [mPa·s]
m1 = 0.00225 | – | – | 0.8929 ± 0.0079
m1 = 0.0045 | 997.19 ± 0.4 | 1497.4 ± 0.9 | –
m1 = 0.0058 | 997.23 ± 0.4 | 1497.5 ± 0.9 | –
m1 = 0.0077 | 997.29 ± 0.4 | 1497.8 ± 0.9 | –
m1 = 0.00773 | – | – | 0.8974 ± 0.008
m1 = 0.01093 | – | – | 0.8997 ± 0.008
m1 = 0.0112 | 997.4 ± 0.4 | 1498.3 ± 0.9 | –
m1 = 0.01518 | – | – | 0.9029 ± 0.008
m1 = 0.017 | 997.58 ± 0.4 | 1499 ± 0.9 | –
m1 = 0.01948 | – | – | 0.9059 ± 0.008
m1 = 0.0196 | 997.66 ± 0.4 | 1499.4 ± 0.9 | –
m1 = 0.0235 | 997.78 ± 0.4 | 1499.9 ± 0.9 | –
m1 = 0.02476 | – | – | 0.9094 ± 0.008
m1 = 0.0264 | 997.87 ± 0.4 | 1500.3 ± 0.9 | –
m1 = 0.0311 | – | – | 0.914 ± 0.008
m1 = 0.0369 | 998.19 ± 0.4 | 1501.7 ± 1 | –
m1 = 0.03923 | – | – | 0.9201 ± 0.008
m1 = 0.0428 | 998.37 ± 0.4 | 1502.5 ± 1 | –
m1 = 0.0454 | 998.45 ± 0.4 | 1502.9 ± 1 | –
m1 = 0.04705 | – | – | 0.9255 ± 0.0081
